From publication PMC8523698, “Preclinical characterization of an intravenous coronavirus 3CL protease inhibitor for the potential treatment of COVID19” (Nature Communications, 2021)
“And” between values parts separate entries of the source, which are not always exact repeats. Equal values may be shown once.

What was measured:
[1] = Rat pharmacokinetic study; settings: for Vd: Vdss
CYP1A2 = target: T1, CYP1A2 (Homo sapiens, UniProt P05177); test: Reversible CYP inhibition in human liver microsomes; settings: for activity at 0.1 µM / activity at 0.214 µM / activity at 0.979 µM / activity at 2.09 µM / activity at 4.48 µM / activity at 20.5 µM / activity at 43.8 µM / activity at 93.5 µM / activity at 200 µM: pH 7.4, Percent of Control Activity
T1 sequence (P05177 1-516): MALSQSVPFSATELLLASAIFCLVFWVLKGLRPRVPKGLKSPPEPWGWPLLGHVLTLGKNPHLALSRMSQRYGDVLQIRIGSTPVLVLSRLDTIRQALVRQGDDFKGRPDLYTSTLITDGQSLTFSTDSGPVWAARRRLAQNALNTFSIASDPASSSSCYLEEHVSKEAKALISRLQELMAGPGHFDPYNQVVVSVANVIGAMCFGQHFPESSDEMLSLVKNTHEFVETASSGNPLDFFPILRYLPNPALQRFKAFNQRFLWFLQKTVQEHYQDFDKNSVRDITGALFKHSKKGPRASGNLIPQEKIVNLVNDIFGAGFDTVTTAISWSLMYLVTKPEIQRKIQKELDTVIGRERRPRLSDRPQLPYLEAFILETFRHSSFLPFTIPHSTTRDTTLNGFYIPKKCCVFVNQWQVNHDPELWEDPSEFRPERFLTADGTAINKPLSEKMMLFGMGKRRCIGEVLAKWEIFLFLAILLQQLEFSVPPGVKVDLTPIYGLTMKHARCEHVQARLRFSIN

MDR1/P-gp = MDR1/P-gp (Homo sapiens, UniProt P08183); test: Transporter inhibition using membrane vesicles; settings: for % PGP Uptake Activity: uptake of N-methyl quinidine by MDR1, single replicates
[2] = rat, PF-00835231 active dosed 2mg/kg intravenous, individual rats, 2 mg/kg

MDR1/P-gp, sequence (P08183 whole entry): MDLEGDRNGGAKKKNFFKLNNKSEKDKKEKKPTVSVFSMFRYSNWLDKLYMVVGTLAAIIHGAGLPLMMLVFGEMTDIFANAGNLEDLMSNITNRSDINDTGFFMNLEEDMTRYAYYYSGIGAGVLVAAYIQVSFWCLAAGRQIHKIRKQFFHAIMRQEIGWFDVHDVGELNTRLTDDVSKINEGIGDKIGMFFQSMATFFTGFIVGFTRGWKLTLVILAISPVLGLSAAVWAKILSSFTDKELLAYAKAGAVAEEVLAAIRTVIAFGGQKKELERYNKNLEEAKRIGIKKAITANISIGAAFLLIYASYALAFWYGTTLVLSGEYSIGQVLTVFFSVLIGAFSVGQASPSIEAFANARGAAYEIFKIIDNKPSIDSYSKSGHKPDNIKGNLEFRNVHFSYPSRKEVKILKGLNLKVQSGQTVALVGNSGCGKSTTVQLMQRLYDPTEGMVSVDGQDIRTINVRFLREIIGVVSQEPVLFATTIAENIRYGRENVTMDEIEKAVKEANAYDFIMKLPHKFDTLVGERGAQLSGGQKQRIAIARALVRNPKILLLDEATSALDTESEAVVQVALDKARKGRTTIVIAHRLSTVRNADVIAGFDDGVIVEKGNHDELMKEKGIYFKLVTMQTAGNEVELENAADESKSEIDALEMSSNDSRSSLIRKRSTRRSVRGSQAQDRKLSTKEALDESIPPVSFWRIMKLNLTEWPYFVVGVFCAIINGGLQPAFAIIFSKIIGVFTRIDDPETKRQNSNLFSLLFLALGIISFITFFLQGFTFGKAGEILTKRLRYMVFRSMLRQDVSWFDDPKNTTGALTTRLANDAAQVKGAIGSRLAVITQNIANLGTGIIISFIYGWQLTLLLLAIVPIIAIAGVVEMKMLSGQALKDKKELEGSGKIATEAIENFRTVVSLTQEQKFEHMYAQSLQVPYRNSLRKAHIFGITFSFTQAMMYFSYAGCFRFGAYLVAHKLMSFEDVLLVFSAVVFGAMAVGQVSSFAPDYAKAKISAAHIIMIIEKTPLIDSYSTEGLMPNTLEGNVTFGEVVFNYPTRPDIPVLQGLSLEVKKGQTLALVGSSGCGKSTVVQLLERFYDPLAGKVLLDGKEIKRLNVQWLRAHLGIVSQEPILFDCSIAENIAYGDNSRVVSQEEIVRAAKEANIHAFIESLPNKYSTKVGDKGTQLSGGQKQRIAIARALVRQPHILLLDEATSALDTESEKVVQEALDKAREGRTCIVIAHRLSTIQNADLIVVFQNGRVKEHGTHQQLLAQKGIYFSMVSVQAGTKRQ

## COc1cccc2[nH]c(C(=O)N[C@@H](CC(C)C)C(=O)N[C@@H](C[C@@H]3CCNC3=O)C(=O)CO)cc12 [PF-00835231]
[1]; male, Wistar-Hannover, rat, plasma, iv, 2 mg/kg, rat IV, PF-07304814 […] (n=2, range), PF-00835231 2mg/kg (n=3, ± SD)
  Vd: < 1.5 L/kg
[1]; male, Wistar-Hannover, rat, plasma, iv, CL, rat IV, PF-07304814 […] (n=2, range), PF-00835231 2mg/kg (n=3, ± SD)
  clearance: 27 ± 3.1 mL/min/kg
[1]; male, Wistar-Hannover, rat, plasma, iv, Terminal T1/2, rat IV, PF-07304814 […] (n=2, range), PF-00835231 2mg/kg (n=3, ± SD)
  half-life: 43.2 ± 7.2 min
[1]; male, Wistar-Hannover, rat, plasma, iv, rat IV, PF-07304814 […] (n=2, range), PF-00835231 2mg/kg (n=3, ± SD)
  Vd: 0.75 ± 0.24 L/kg
[1]; male, Wistar-Hannover, rat, plasma, po, 2 mg/kg, Oral F%, rat, 2mg/kg PO vs IV
  bioavailability: 1.4 ± 0.76%
[1]; male, Wistar-Hannover, rat, plasma, po, 5 mg/kg, AUCt, Mean, PF-00835231 5mg/kg PO dose
  AUC(0-t): 12.8 ng·h/mL
[1]; rat urine 0-7 h, PF-00835231 active dosed 2mg/kg intravenous, individual rats, 2 mg/kg
  Urine Concn: 29200 ng/mL and 3180 ng/mL and 6320 ng/mL
[1]; rat urine 7-24 h, PF-00835231 active dosed 2mg/kg intravenous, individual rats, 2 mg/kg
  Urine Concn: 234 ng/mL and 85.6 ng/mL and 368 ng/mL
[1]; rat, PF-00835231 5mg/kg PO dose, individual rats, 5 mg/kg
  AUCt: 5.75 ng·h/mL and 18.5 ng·h/mL and 14.1 ng·h/mL
[1]; [2]
  AUCinf: 1110 ng·h/mL and 1400 ng·h/mL
  Half life: 51.4 min and 38.7 min
  Vdss: 1.02 L/kg and 0.58 L/kg
  clearance: 30 mL/min/kg and 23.8 mL/min/kg
[1]; rat, 2mg/kg PO vs IV, 2 mg/kg
  Oral F%: < 2%
CYP1A2; CYP 1A2, 0.1 µM, 30-Minute Preincubation, 0.1 µM
  Percent of Control Activity: 100.7% and 97.2%
CYP1A2; CYP 1A2, 0.1 µM, Zero-Minute Preincubation, 0.1 µM
  Percent of Control Activity: 91.5%
CYP1A2; CYP 1A2, 0.214 µM, 30-Minute Preincubation, 0.214 µM
  Percent of Control Activity: 101.6% and 102.2%
CYP1A2; CYP 1A2, 0.214 µM, Zero-Minute Preincubation, 0.214 µM
  Percent of Control Activity: 97.3%
CYP1A2; CYP 1A2, 0.979 µM, 30-Minute Preincubation, 0.979 µM
  Percent of Control Activity: 100.1% and 99.5%
CYP1A2; CYP 1A2, 0.979 µM, Zero-Minute Preincubation, 0.979 µM
  Percent of Control Activity: 99.8% and 102.1%
CYP1A2; CYP 1A2, 2.09 µM, 30-Minute Preincubation, 2.09 µM
  Percent of Control Activity: 98.8%
CYP1A2; CYP 1A2, 2.09 µM, Zero-Minute Preincubation, 2.09 µM
  Percent of Control Activity: 90.6% and 85.1%
CYP1A2; CYP 1A2, 4.48 µM, 30-Minute Preincubation, 4.48 µM
  Percent of Control Activity: 99.2% and 99.5%
CYP1A2; CYP 1A2, 4.48 µM, Zero-Minute Preincubation, 4.48 µM
  Percent of Control Activity: 97.7%
CYP1A2; CYP 1A2, 20.5 µM, 30-Minute Preincubation, 20.5 µM
  Percent of Control Activity: 99.6% and 97.2%
CYP1A2; CYP 1A2, 20.5 µM, Zero-Minute Preincubation, 20.5 µM
  Percent of Control Activity: 95.6% and 98.0%
CYP1A2; CYP 1A2, 43.8 µM, 30-Minute Preincubation, 43.8 µM
  Percent of Control Activity: 96.6% and 97.7%
CYP1A2; CYP 1A2, 43.8 µM, Zero-Minute Preincubation, 43.8 µM
  Percent of Control Activity: 92.9% and 93.4%
CYP1A2; CYP 1A2, 93.5 µM, 30-Minute Preincubation, 93.5 µM
  Percent of Control Activity: 90.5% and 95.8%
CYP1A2; CYP 1A2, 93.5 µM, Zero-Minute Preincubation, 93.5 µM
  Percent of Control Activity: 76.6% and 87.4%
CYP1A2; CYP 1A2, 200 µM, 30-Minute Preincubation, 200 µM
  Percent of Control Activity: 92.7% and 91.0%
CYP1A2; CYP 1A2, 200 µM, Zero-Minute Preincubation, 200 µM
  Percent of Control Activity: 81.0% and 74.4%
CYP1A2; human, microsomes, pH 7.4
  IC50: > 200 µM
CYP1A2; human, microsomes, CYP 1A2, 0.1 µM, 30-Minute Preincubation
  activity at 0.1 µM: 98%
CYP1A2; human, microsomes, CYP 1A2, 0.1 µM, Zero-Minute Preincubation
  activity at 0.1 µM: 97.8%
CYP1A2; human, microsomes, CYP 1A2, 0.214 µM, 30-Minute Preincubation
  activity at 0.214 µM: 96.5%
CYP1A2; human, microsomes, CYP 1A2, 0.214 µM, Zero-Minute Preincubation
  activity at 0.214 µM: 98.4%
CYP1A2; human, microsomes, CYP 1A2, 0.979 µM, 30-Minute Preincubation
  activity at 0.979 µM: 98.9%
CYP1A2; human, microsomes, CYP 1A2, 0.979 µM, Zero-Minute Preincubation
  activity at 0.979 µM: 97.6%
CYP1A2; human, microsomes, CYP 1A2, 2.09 µM, 30-Minute Preincubation
  activity at 2.09 µM: 98.3%
CYP1A2; human, microsomes, CYP 1A2, 2.09 µM, Zero-Minute Preincubation
  activity at 2.09 µM: 97.8%
CYP1A2; human, microsomes, CYP 1A2, 4.48 µM, 30-Minute Preincubation
  activity at 4.48 µM: 97%
CYP1A2; human, microsomes, CYP 1A2, 4.48 µM, Zero-Minute Preincubation
  activity at 4.48 µM: 99.3%
CYP1A2; human, microsomes, CYP 1A2, 20.5 µM, 30-Minute Preincubation
  activity at 20.5 µM: 97.1%
CYP1A2; human, microsomes, CYP 1A2, 20.5 µM, Zero-Minute Preincubation
  activity at 20.5 µM: 99.4%
CYP1A2; human, microsomes, CYP 1A2, 43.8 µM, 30-Minute Preincubation
  activity at 43.8 µM: 95.9%
CYP1A2; human, microsomes, CYP 1A2, 43.8 µM, Zero-Minute Preincubation
  activity at 43.8 µM: 94.2%
CYP1A2; human, microsomes, CYP 1A2, 93.5 µM, 30-Minute Preincubation
  activity at 93.5 µM: 89.6%
CYP1A2; human, microsomes, CYP 1A2, 93.5 µM, Zero-Minute Preincubation
  activity at 93.5 µM: 84.6%
CYP1A2; human, microsomes, CYP 1A2, 200 µM, 30-Minute Preincubation
  activity at 200 µM: 93.6%
CYP1A2; human, microsomes, CYP 1A2, 200 µM, Zero-Minute Preincubation
  activity at 200 µM: 81.3%
MDR1/P-gp; IC50, N-methyl quinidine (0.2 µM)
  IC50: 65.6 µM
MDR1/P-gp; human, human MDR1 (P-gp) membrane vesicles, pH 7.4, probe N-methyl quinidine (0.2 µM), IC50, N-methyl quinidine (0.2 µM)
  IC50 at […]: > 20 µM
MDR1/P-gp; inhibitor concentration 0.0732 uM
  % PGP Uptake Activity: 93.3145% and 114.451% and 106.12%
MDR1/P-gp; inhibitor concentration 0.2930 uM
  % PGP Uptake Activity: 78.5035% and 118.154% and 104.268%
MDR1/P-gp; inhibitor concentration 1.1719 uM
  % PGP Uptake Activity: 118.617% and 114.451%
MDR1/P-gp; inhibitor concentration 4.6875 uM
  % PGP Uptake Activity: 113.525% and 107.354% and 108.897%
MDR1/P-gp; inhibitor concentration 18.7500 uM
  % PGP Uptake Activity: 94.703% and 96.0915% and 89.1489%
MDR1/P-gp; inhibitor concentration 300.0000 uM
  % PGP Uptake Activity: 17.0995% and 14.0139% and 11.9619%
